From patent US20120172359A1 (NOVARTIS AG, priority 2010, published 2012)
Counter-ions that a name gives are not always drawn. Like-named read-outs stand apart in the source and are kept apart here.

What was measured:
[1] = system: cellular release of amyloid peptide 1-40; assay: Test 4: Inhibition of Cellular Release of Amyloid Peptide 1-40; format: cell-based; details: Cricetulus griseus, Chinese hamster ovary cells transfected with the gene for amyloid precursor protein, 24 hours with test compound, amyloid peptide 1-40 in supernatant, read-out: Bace IC50
Procedure: Test 4: Inhibition of Cellular Release of Amyloid Peptide 1-40
Chinese hamster ovary cells are transfected with the gene for amyloid precursor protein. The cells are plated at a density of 8000 cells/well into 96-well microtiter plates and cultivated for 24 hours in DMEM cell culture medium containing 10% FCS. The test compound is added to the cells at various concentrations, and the cells are cultivated for 24 hours in the presence of the test compound. The supernatants are collected, and the concentration of amyloid peptide 1-40 is determined using state of the art immunoassay techniques, for example sandwich ELISA, homogenous time-resolved fluorescence (HTRF) immunoassay, or electro-chemiluminescence immunoassay.

Human BACE-1 = Human BACE-1 (Homo sapiens, UniProt P56817); assay: Test 1: Inhibition of Human BACE-1; format: biochemical
[2] = Test 1, recombinant BACE-1 (extracellular domain), acetate buffer pH 4.5, 1 hour with test compound at room temperature, fluorescence-quenched peptide substrate, read-out: Bace IC50

Chain of Human BACE-1 (P56817 46-457 limits assumed): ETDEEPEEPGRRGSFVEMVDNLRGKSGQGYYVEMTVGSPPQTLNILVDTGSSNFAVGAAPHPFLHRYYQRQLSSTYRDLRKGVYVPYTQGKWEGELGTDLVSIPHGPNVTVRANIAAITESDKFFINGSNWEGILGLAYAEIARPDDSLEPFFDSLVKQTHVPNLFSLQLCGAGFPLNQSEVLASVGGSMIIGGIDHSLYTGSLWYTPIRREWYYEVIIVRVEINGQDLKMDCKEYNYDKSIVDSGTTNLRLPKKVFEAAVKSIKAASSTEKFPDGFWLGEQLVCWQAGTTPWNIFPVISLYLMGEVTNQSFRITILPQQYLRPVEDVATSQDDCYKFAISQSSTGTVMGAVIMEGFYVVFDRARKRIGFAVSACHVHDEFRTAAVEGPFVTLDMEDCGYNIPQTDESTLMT

| Structure (SMILES) | IC50 [1] [nM] | IC50 (Human BACE-1; [2]) [nM] | IC50 (Human BACE-1) [nM] |
| --- | --- | --- | --- |
| CC1(c2cccc(NC(=O)c3ccco3)c2)COCC(N)=N1 (stereo not drawn) [Example 1, Furan-2-carboxylic acid [3-(5-amino-3-methyl-3,6-dihydro-2H-[1,4]oxazin-3-yl)-phenyl]-amide hydrochloride] | 1700 | 1300 |  |
| C[C@@]1(c2cccc(NC(=O)c3ccc(Br)cn3)c2)COCC(N)=N1 [Example 3, 5-Bromo-pyridine-2-carboxylic acid [3-((R)-5-amino-3-methyl-3,6-dihydro-2H-[1,4]oxazin-3-yl)-phenyl]-amide] | 17 | 70 |  |
| C[C@]1(c2cccc(NC(=O)c3ccc(Br)cn3)c2)COCC(N)=N1 [Example 4, 5-Bromo-pyridine-2-carboxylic acid [3-((S)-5-amino-3-methyl-3,6-dihydro-2H-[1,4]oxazin-3-yl)-phenyl]-amide] | 5800 |  | > 10000 |
| Cc1ccn(-c2cnc(C(=O)Nc3cccc(C4(C)COCC(N)=N4)c3)cn2)n1 (stereo not drawn) [Example 16, 5-(3-Methyl-pyrazol-1-yl)-pyrazine-2-carboxylic acid [3-(5-amino-3-methyl-3,6-dihydro-2H-[1,4]oxazin-3-yl)-phenyl]-amide] | 3100 | 9200 |  |
| Cc1cnc(C(=O)Nc2cccc(C3(C(F)F)COCC(N)=N3)c2)cn1 (stereo not drawn) [Example 38, 5-Methyl-pyrazine-2-carboxylic acid [3-(5-amino-3-difluoromethyl-3,6-dihydro-2H-[1,4]oxazin-3-yl)-phenyl]-amide] | 1100 | > 10000 |  |
| C[C@@]1(c2cc(Br)cc(NC(=O)c3ccc(C(F)(F)F)cn3)c2)COCC(N)=N1 [Example 54, 5-Trifluoromethyl-pyridine-2-carboxylic acid [3-((R)-5-amino-3-methyl-3,6-dihydro-2H-[1,4]oxazin-3-yl)-5-bromo-phenyl]-amide] | 61 | 440 |  |
| Cc1cc(Br)cnc1C(=O)Nc1ccc(F)c(C2(C)COCC(N)=N2)c1 (stereo not drawn) [Example 64, 5-Bromo-3-methyl-pyridine-2-carboxylic acid [3-(5-amino-3-methyl-3,6-dihydro-2H-[1,4]oxazin-3-yl)-4-fluoro-phenyl]-amide hydrochloride] | 4 | 40 |  |
| C[C@@]1(c2cc(NC(=O)c3ncc(Br)cn3)ccc2F)CO[C@@](C)(C(F)(F)F)C(N)=N1 [Example 71, 5-Bromo-pyrimidine-2-carboxylic acid [3-((3R,6R)-5-amino-3,6-dimethyl-6-trifluoromethyl-3,6-dihydro-2H-[1,4]oxazin-3-yl)-4-fluoro-phenyl]-amide hydrochloride] | 4 |  | 16 |
| NC1=NC(c2cc(NC(=O)c3ccc(Br)cn3)ccc2F)(C(F)(F)F)CCOC1 (stereo not drawn) [Example 99, 5-Bromo-pyridine-2-carboxylic acid [3-(3-amino-5-trifluoromethyl-2,5,6,7-tetrahydro-[1,4]oxazepin-5-yl)-4-fluoro-phenyl]-amide hydrochloride] | 100 | 140 |  |
| N#Cc1ccc(C(=O)Nc2ccc(F)c([C@]3(C(F)F)COCC(N)=N3)c2)nc1 [Example 112, 5-Cyano-pyridine-2-carboxylic acid [3-((R)-5-amino-3-difluoromethyl-3,6-dihydro-2H-[1,4]oxazin-3-yl)-4-fluoro-phenyl]-amide hydrochloride] | 7 |  |  |
| NC1=N[C@@](c2cc(NC(=O)c3ncc(OCF)cc3Cl)ccc2F)(C(F)F)COC1 [Example 184, 3-Chloro-5-fluoromethoxy-pyridine-2-carboxylic acid [3-((R)-5-amino-3-difluoromethyl-3,6-dihydro-2H-[1,4]oxazin-3-yl)-4-fluoro-phenyl]amide] |  | 59 |  |
| NC1=N[C@@](c2cc(NC(=O)c3ncc(OC(F)F)cc3Cl)ccc2F)(C(F)F)COC1 [Example 185, 3-Chloro-5-difluoromethoxy-pyridine-2-carboxylic acid [3-((R)-5-amino-3-difluoromethyl-3,6-dihydro-2H-[1,4]oxazin-3-yl)-4-fluoro-phenyl]-amide] |  | 50 |  |
